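Briefly, cells in 96-well plates were exposed to five compound concentrations for 48 h, and endpoints were estimated by linear interpolation. GI50 marks 50% less growth.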 Active and inactive are the calls of the source. Cut-off read from the data, not from the text of the source: active = GI50 up to about 1.1 µM and inactive = higher.
Experiments:
Test in all cases: NCI anticancer screen, dose series, 48 h
MDA-MB-231 = system: MDA-MB-231
COLO 205 = system: COLO 205
TK-10 = system: TK-10
ACHN = system: ACHN
786-0 = system: 786-0
U-251 = system: U-251
OVCAR-4 = system: OVCAR-4
M14 = system: M14
PC-3 = system: PC-3
BT-549 = system: BT-549
OVCAR-8 = system: OVCAR-8
UACC-62 = system: UACC-62
UO-31 = system: UO-31
SK-MEL-28 = system: SK-MEL-28
DU-145 = system: DU-145
HOP-92 = system: HOP-92
A498 = system: A498
NCI-H23 = system: NCI-H23
RXF 393 = system: RXF 393
HL-60 = system: HL-60

Measured: GI50

CCOC1NC(=O)Oc2ccccc21 (stereo not given)
inactive: MDA-MB-231 > 100 µM | COLO 205 > 100 µM | TK-10 > 100 µM | ACHN > 100 µM | 786-0 > 100 µM | U-251 > 100 µM | OVCAR-4 > 100 µM | M14 > 100 µM | PC-3 > 100 µM | BT-549 > 100 µM | OVCAR-8 > 100 µM | UACC-62 > 100 µM | UO-31 > 100 µM | SK-MEL-28 > 100 µM | DU-145 > 100 µM | HOP-92 > 100 µM | A498 > 100 µM | NCI-H23 > 100 µM | RXF 393 > 100 µM | HL-60 > 100 µM

Reference: ChEMBL document CHEMBL1201862, “PubChem BioAssay data set” (2004)
